From US10030020B2, “Spirocycle compounds and methods of making and using same” (Abide Therapeutics, Inc., priority 2016, dated 2018)

Assays:
MAGL [1] = target: T1, MAGL (Mus musculus (Mouse), UniProt O35678); assay: In vitro competitive activity-based protein profiling (mouse brain membrane fraction or cell lysates), MAGL band; assay type: biochemical; conditions: mouse proteome; for inhibition at 1 µM: read-out: MAGL % Inh 1 μM (mouse); for IC50: competitive ABPP
Method: In Vitro Competitive Activity-Based Protein Profiling.
Proteomes (mouse brain membrane fraction or cell lysates) (50 μL, 1.0 mg/mL total protein concentration) were preincubated with varying concentrations of inhibitors at 37° C. After 30 min, FP—Rh (1.0 μL, 50 μM in DMSO) was added and the mixture was incubated for another 30 min at 37° C. Reactions were quenched with SDS loading buffer (50 μL-4×) and run on SDS-PAGE.

ABHD6 [2] = target: T2, ABHD6 (Mus musculus (Mouse), UniProt Q8R2Y0); assay: In vitro competitive activity-based protein profiling (mouse brain membrane fraction or cell lysates), ABHD6 band; assay type: biochemical; conditions: mouse proteome; for inhibition at 1 µM: read-out: ABHD6 % Inh 1 μM (mouse); for IC50: competitive ABPP
T2 sequence (Q8R2Y0 whole entry): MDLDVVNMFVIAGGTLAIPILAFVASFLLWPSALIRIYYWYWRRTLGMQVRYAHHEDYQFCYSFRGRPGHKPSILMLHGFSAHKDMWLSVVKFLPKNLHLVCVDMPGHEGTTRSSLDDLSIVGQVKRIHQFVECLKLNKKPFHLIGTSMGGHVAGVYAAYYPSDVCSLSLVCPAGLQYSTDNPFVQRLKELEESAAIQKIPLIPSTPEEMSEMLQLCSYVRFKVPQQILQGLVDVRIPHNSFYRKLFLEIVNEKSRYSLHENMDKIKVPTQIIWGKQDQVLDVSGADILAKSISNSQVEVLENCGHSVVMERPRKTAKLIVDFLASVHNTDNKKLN
In short: (§1)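 Mouse proteome samples (brain membrane fraction or cell lysate, 1.0 mg/mL protein) were pretreated with varying inhibitor concentrations and subsequently probed with fluorophosphonate-rhodamine, each step lasting 30 min at 37° C. Labelled proteins were separated by SDS-PAGE, and band fluorescence was imaged and quantified.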

FAAH [3] = target: T3, FAAH (Mus musculus (Mouse), UniProt O08914); assay: In vitro competitive activity-based protein profiling (mouse brain membrane fraction or cell lysates), FAAH band; assay type: biochemical; conditions: mouse proteome; for inhibition at 1 µM: read-out: FAAH % Inh 1 μM (mouse); for IC50: competitive ABPP
T3 sequence (O08914 whole entry): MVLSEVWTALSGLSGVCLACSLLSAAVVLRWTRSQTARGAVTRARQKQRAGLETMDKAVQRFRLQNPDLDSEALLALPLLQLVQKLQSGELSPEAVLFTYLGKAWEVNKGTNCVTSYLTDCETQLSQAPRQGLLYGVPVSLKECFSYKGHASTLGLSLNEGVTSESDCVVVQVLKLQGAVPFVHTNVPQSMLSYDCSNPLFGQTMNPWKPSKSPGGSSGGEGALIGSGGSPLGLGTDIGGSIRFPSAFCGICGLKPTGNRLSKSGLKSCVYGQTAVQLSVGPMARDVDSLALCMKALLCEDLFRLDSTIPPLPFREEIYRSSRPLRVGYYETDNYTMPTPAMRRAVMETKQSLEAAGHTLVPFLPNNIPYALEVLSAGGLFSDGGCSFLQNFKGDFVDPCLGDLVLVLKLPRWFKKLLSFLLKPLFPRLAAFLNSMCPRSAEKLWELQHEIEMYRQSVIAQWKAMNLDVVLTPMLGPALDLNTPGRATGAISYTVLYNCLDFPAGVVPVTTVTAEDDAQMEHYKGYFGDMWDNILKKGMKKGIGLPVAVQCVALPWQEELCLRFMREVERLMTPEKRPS
In short: as §1

ABHD6 [4] = target: T2, ABHD6; assay: Mouse brain proteomes from inhibitor treated mice (oral gavage, sacrificed 4 h after administration, ABPP analysis), ABHD6; assay type: in vivo, mouse (C57Bl/6J); conditions: 5 mg/kg oral gavage
Method: (§2) Preparation of Mouse Brain Proteomes from Inhibitor Treated Mice.
(§3) Inhibitors were administered to wild-type C57Bl/6J by oral gavage in a vehicle, e.g. PEG400/Ethanol/PBS (7/2/1). Each animal was sacrificed 4 h following administration and brain proteomes were prepared and analyzed according to previously established methods (See Niphakis, M. J., et al. (2011) ACS Chem. Neurosci. and Long, J. Z., et al. Nat. Chem. Biol. 5:37-44). Data from this assay is shown in Table 2 (% inhibition at 5 mg/kg).

MAGL [5] = target: T1, MAGL; assay: Mouse brain proteomes from inhibitor treated mice (oral gavage, sacrificed 4 h after administration, ABPP analysis); assay type: in vivo, mouse (C57Bl/6J); conditions: 5 mg/kg oral gavage
Method: as §2, §3

FAAH [6] = target: T3, FAAH; assay: Mouse brain proteomes from inhibitor treated mice (oral gavage, sacrificed 4 h after administration, ABPP analysis), FAAH; assay type: in vivo, mouse (C57Bl/6J); conditions: 5 mg/kg oral gavage
Method: as §2, §3

T1 sequence (O35678 whole entry): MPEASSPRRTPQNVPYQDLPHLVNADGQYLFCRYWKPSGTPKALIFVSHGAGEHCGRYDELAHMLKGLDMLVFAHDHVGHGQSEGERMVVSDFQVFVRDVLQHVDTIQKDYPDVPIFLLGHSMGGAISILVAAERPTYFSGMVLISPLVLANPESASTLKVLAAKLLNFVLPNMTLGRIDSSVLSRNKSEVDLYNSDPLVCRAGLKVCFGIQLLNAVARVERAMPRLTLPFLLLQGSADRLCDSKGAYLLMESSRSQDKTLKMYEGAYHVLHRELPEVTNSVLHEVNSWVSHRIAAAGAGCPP

SMILES | inhibition at 1 µM (MAGL [1]) [%] | IC50 (MAGL [1]) [nM] | inhibition at 1 µM (ABHD6 [2]) [%] | IC50 (ABHD6 [2]) [nM] | inhibition at 1 µM (FAAH [3]) [%] | IC50 (FAAH [3]) [nM] | ABHD6 % Inh 5 mg/kg (mouse) (ABHD6 [4]) | MAGL % Inh 5 mg/kg (mouse) (MAGL [5]) | FAAH % Inh 5 mg/kg (mouse) (FAAH [6])
O=C(OC(C(F)(F)F)C(F)(F)F)N1CCC2(CCCN2Cc2cccc(N3CCCCC3)c2Cl)CC1 [Example 80, 1,1,1,3,3,3-Hexafluoropropan-2-yl 1-(2-chloro-3-(piperidin-1-yl)benzyl)-1,8-diazaspiro[4.5]decane-8-carboxylate] | > 75 | < 100 | < 25 | > 1000 | < 25 | > 1000 | ## (## is equal to or greater than 25% but less than 75%) | ### (### is ≥75%) | ## (## is equal to or greater than 25% but less than 75%)
O=C(OC(C(F)(F)F)C(F)(F)F)N1CCC2(CCCN2Cc2cc(OC(F)(F)F)cc(N3CCOCC3)c2)CC1 [Example 37, 1,1,1,3,3,3-Hexafluoropropan-2-yl 1-(3-morpholino-5-(trifluoromethoxy)benzyl)-1,8-diazaspiro[4.5]decane-8-carboxylate] | > 75 | < 100 | < 25 | > 1000 | < 25 | > 1000 | # (# is <25%) | ### (### is ≥75%) | # (# is <25%)
O=C(OC(C(F)(F)F)C(F)(F)F)N1CCC2(CCCN2Cc2ccc(Cl)cc2OCCF)CC1 [Example 30, 1,1,1,3,3,3-Hexafluoropropan-2-yl 1-(4-chloro-2-(2-fluoroethoxy)benzyl)-1,8-diazaspiro[4.5]decane-8-carboxylate] | > 75 | < 100 | < 25 | > 1000 | < 25 | > 1000 | # (# is <25%) | ### (### is ≥75%) | # (# is <25%)
CS(=O)(=O)N1CCc2cccc(CN3CCCC34CCN(C(=O)OC(C(F)(F)F)C(F)(F)F)CC4)c2C1 [Example 146, 1,1,1,3,3,3-Hexafluoropropan-2-yl 1-((2-methanesulfonyl-1,2,3,4-tetrahydroisoquinolin-8-yl)methyl)-1,8-diazaspiro[4.5]decane-8-carboxylate] | > 75 | < 100 | 25 to 75 | > 1000 | < 25 | > 1000 | ## (## is equal to or greater than 25% but less than 75%) | ### (### is ≥75%) | # (# is <25%)
COc1ccc(F)cc1CN1CCCC12CCN(C(=O)OC(C(F)(F)F)C(F)(F)F)CC2 [Example 8, 1,1,1,3,3,3-Hexafluoropropan-2-yl 1-(5-fluoro-2-methoxybenzyl)-1,8-diazaspiro[4.5]decane-8-carboxylate] |  | < 100 |  | > 1000 |  | > 1000 | ## (## is equal to or greater than 25% but less than 75%) | ### (### is ≥75%) | ## (## is equal to or greater than 25% but less than 75%)
CN1CCN(c2c(Cl)cccc2CN2CC3(CCN(C(=O)OC(C(F)(F)F)C(F)(F)F)CC3)CC2(C)C)CC1 [Example 189, 1,1,1,3,3,3-Hexafluoropropan-2-yl 2-(3-chloro-2-(4-methylpiperazin-1-yl)benzyl)-3,3-dimethyl-2,8-diazaspiro[4.5]decane-8-carboxylate] | > 75 | < 100 | 25 to 75 | 100 to 1000 | < 25 | > 1000 | # (# is <25%) | ## (## is equal to or greater than 25% but less than 75%) | # (# is <25%)
O=C(OC(C(F)(F)F)C(F)(F)F)N1CCC2(CCN(Cc3ccc(Cl)cc3N3CCCCC3)C2)CC1 [Example 24, 1,1,1,3,3,3-Hexafluoropropan-2-yl 2-(4-chloro-2-(piperidin-1-yl)benzyl)-2,8-diazaspiro[4.5]decane-8-carboxylate] | > 75 | < 100 | < 25 | > 1000 | < 25 | > 1000 | # (# is <25%) | ### (### is ≥75%) | # (# is <25%)
CS(=O)(=O)N1CCN(c2cc(CN3CCCC34CCN(C(=O)OC(C(F)(F)F)C(F)(F)F)CC4)cc(C(F)(F)F)c2)CC1 [Example 43, 1,1,1,3,3,3-Hexafluoropropan-2-yl 1-(3-(4-(methylsulfonyl)piperazin-1-yl)-5-(trifluoromethyl)benzyl)-1,8-diazaspiro[4.5]decane-8-carboxylate] | > 75 | < 100 | < 25 | > 1000 | < 25 | > 1000 | # (# is <25%) | ## (## is equal to or greater than 25% but less than 75%) | # (# is <25%)
O=C(OC(C(F)(F)F)C(F)(F)F)N1CCC2(CCCN2Cc2ccc(C(F)(F)F)cc2N2CCC(F)(F)CC2)CC1 [Example 90, 1,1,1,3,3,3-Hexafluoropropan-2-yl 1-(2-(4,4-difluoropiperidin-1-yl)-4-(trifluoromethyl)benzyl)-1,8-diazaspiro[4.5]decane-8-carboxylate] | > 75 | < 100 | < 25 | > 1000 | < 25 | > 1000 | # (# is <25%) | ## (## is equal to or greater than 25% but less than 75%) | # (# is <25%)
CCN1CCCc2cccc(CN3CCC4(CCN(C(=O)OC(C(F)(F)F)C(F)(F)F)CC4)C3)c21 [Example 71, 1,1,1,3,3,3-Hexafluoropropan-2-yl 2-((1-ethyl-1,2,3,4-tetrahydroquinolin-8-yl)methyl)-2,8-diazaspiro[4.5]decane-8-carboxylate] | > 75 | < 100 | 25 to 75 | > 1000 | < 25 | > 1000 | ## (## is equal to or greater than 25% but less than 75%) | ### (### is ≥75%) | # (# is <25%)

Next, values leading:

inhibition at 1 µM (MAGL [1]) [%] | IC50 (MAGL [1]) [nM] | inhibition at 1 µM (ABHD6 [2]) [%] | IC50 (ABHD6 [2]) [nM] | inhibition at 1 µM (FAAH [3]) [%] | IC50 (FAAH [3]) [nM] | ABHD6 % Inh 5 mg/kg (mouse) (ABHD6 [4]) | MAGL % Inh 5 mg/kg (mouse) (MAGL [5]) | FAAH % Inh 5 mg/kg (mouse) (FAAH [6]) | SMILES
> 75 | < 100 | < 25 | > 1000 | < 25 | > 1000 | # (# is <25%) | ### (### is ≥75%) | # (# is <25%) | Cc1ccc(CN2CCCC23CCN(C(=O)OC(C(F)(F)F)C(F)(F)F)CC3)cc1Cl [Example 125, 1,1,1,3,3,3-Hexafluoropropan-2-yl 1-(3-chloro-4-methylbenzyl)-1,8-diazaspiro[4.5]decane-8-carboxylate]
> 75 | < 100 | < 25 | > 1000 | < 25 | > 1000 | # (# is <25%) | ### (### is ≥75%) | # (# is <25%) | O=C(OC(C(F)(F)F)C(F)(F)F)N1CCC2(CCCN2Cc2ccc(Cl)cc2N2CCC(F)CC2)CC1 [Example 102, 1,1,1,3,3,3-Hexafluoropropan-2-yl 1-(4-chloro-2-(4-fluoropiperidin-1-yl)benzyl)-1,8-diazaspiro[4.5]decane-8-carboxylate]
> 75 | < 100 | < 25 | > 1000 | < 25 | > 1000 | # (# is <25%) | ### (### is ≥75%) | # (# is <25%) | CCc1cc(CN2CCCC23CCN(C(=O)OC(C(F)(F)F)C(F)(F)F)CC3)ccc1F [Example 150, 1,1,1,3,3,3-Hexafluoropropan-2-yl 1-(3-ethyl-4-fluorobenzyl)-1,8-diazaspiro[4.5]decane-8-carboxylate]
> 75 | < 100 | < 25 | > 1000 | < 25 | > 1000 | # (# is <25%) | ### (### is ≥75%) | # (# is <25%) | CC(=O)N1CCN(c2cc(Cl)ccc2CN2CCCC23CCN(C(=O)OC(C(F)(F)F)C(F)(F)F)CC3)CC1 [Example 99, 1,1,1,3,3,3-Hexafluoropropan-2-yl 1-(2-(4-acetylpiperazin-1-yl)-4-chlorobenzyl)-1,8-diazaspiro[4.5]decane-8-carboxylate]
